Measurements published in US11365202B2, “Antimalarial compounds, process for preparation and their use for drug resistant malaria” (Council of Scientific and Industrial Research, priority 2018, dated 2022).

Key:
A549 human cells = test: In vitro toxicity on mammalian cell culture; assay type: cell-based; settings: for EC50: Homo sapiens, A549, in vitro toxicity
P. falciparum 7G8 = test: P. falciparum growth inhibition assay, 7G8 strain; assay type: cell-based; settings: Plasmodium falciparum, 7G8, read-out: EC50 on P. falciparum 7G8
Description: (§1) P. falciparum strain 3D7, Dd2 and 7G8 were cultured in RPMI media (Invitrogen) supplemented with 0.5% albumax and 4% haematocrit using a protocol described previously [Trager and Jensen (Science,1976; 193:673-675)]. Cultures were synchronized by repeated sorbitol treatment following Lambros and Vanderberg (J Parasitol; 1979; 65:418-420). Each growth inhibition assay was performed in triplicate and the experiment was repeated twice. Each well contained 0.5 ml of complete media [RPMI (invitrogen) with 0.5% albumax], 4% haematocrit and the parasitaemia adjusted to ˜1%; the compound added to the parasite cultures to desired final concentrations (0-100 µM) and same amount of solvent (DMSO) was added to the control wells. The cultures were allowed to grow further for 48 h. Parasite growth was assessed by DNA fluorescent dye-binding assay using SYBR green (Sigma) following Smilkstein et al (Antimicrob Agents Chemother.; 2004, 48, 1803-1806). • f) In Vitro Toxicity Assay on CHO Cells

P. falciparum 3D7 = test: P. falciparum growth inhibition assay, 3D7 strain; assay type: cell-based; settings: Plasmodium falciparum, 3D7, 48 h, read-out: EC50 on P. falciparum 3D7
Description: as §1

P. berghei = test: In vivo parasiticidal assay with P. berghei mice malaria model; settings: for protection in treated group of mice: 12.5 mg/kg of body weight; for Complete Protection - Mice with complete parasite clearance / Survival after treatment: 4 doses of 12.5 mg/Kg of body weight, infected BALB/c mice
Description: Five groups of female BALB/c mice, 6-8 weeks of age (four mice/group) were used for testing the in vivo parsiticidal and protective efficacy of different drug treatments. Mice were injected IP with 1×10^6 P. berghei infected erythrocytes. The drug treatment was initiated 5 days after inducing parasitemia; mice in a group were given 4 doses of a compound at 12.5 mg/Kg of body weight. Control mice were given solvent alone. The parasitemia was assessed everyday in thin smears of Giemsa stained RBCs from tail blood of each mouse, by counting parasitized erythrocytes in more than 10,000 erythrocytes. Time of death of the mice in each group was also monitored.

P. falciparum Dd2 = test: P. falciparum growth inhibition assay, Dd2 strain; assay type: cell-based; settings: Plasmodium falciparum, DD2, read-out: EC50 on P. falciparum Dd2
Description: as §1

## CCOP(=O)(/C=C/C(NC(=O)[C@H](CC(C)C)NC(=O)[C@H](CO[C@H]1O[C@@H]2OC3(C)CC[C@H]4[C@H](C)CC[C@@H]([C@H]1C)[C@@]24OO3)NC(=O)OCc1ccccc1)c1ccccc1)OCC (stereo in doubt) [Compound 3, Benzyl ((2S)-1-(((2S)-1-(((E)-3-(diethoxyphosphoryl)-1-phenylallyl)amino)-4-methyl-1-oxopentan-2-yl)amino)-1-oxo-3-(((3R,5aS,6R,8aS,9R,10S,12R,12aR)-3,6,9-trimethyldeca hydro-12H-3,12-epoxy[1,2]dioxepino[4,3-i]isochromen-10-yl)oxy)propan-2-yl)carbamate]
A549 human cells
  in vitro toxicity on A549 human cells (in words): non-toxic
  EC50: 3820 ± 161 nM
P. falciparum 7G8
  EC50: 0.23 nM
P. falciparum 3D7
  EC50: 3.3 nM
P. berghei
  protection in treated group of mice: 100%
  Complete Protection - Mice with complete parasite clearance: 100% of treated mice
  Survival after treatment: >60 days
P. falciparum Dd2
  EC50: 3.5 nM

## CCOP(=O)(/C=C/C(NC(=O)[C@H](CC(C)C)NC(=O)[C@@H]1C[C@@H](O[C@H]2O[C@@H]3OC4(C)CC[C@H]5[C@H](C)CC[C@@H]([C@H]2C)[C@@]35OO4)CN1C(=O)OCc1ccccc1)c1ccccc1)OCC (stereo in doubt) [Compound 5, Benzyl (2S,4R)-2-(((2S)-1-(((E)-3-(diethoxyphosphoryl)-1-phenylallyl)amino)-4-methyl-1-oxopentan-2-yl)carbamoyl)-4-(((3R,5aS,6R,8aS,9R,10S,12R,12aR)-3,6,9-trimethyldeca hydro-12H-3,12-epoxy[1,2]dioxepino[4,3-i]isochromen-10-yl)oxy)pyrrolidine-1-carboxylate]
A549 human cells
  in vitro toxicity on A549 human cells (in words): non-toxic
  EC50: 1280 ± 156 nM
P. falciparum 7G8
  EC50: 1.2 nM
P. falciparum 3D7
  EC50: 2.57 nM
P. berghei
  protection in treated group of mice: 100%
  Complete Protection - Mice with complete parasite clearance: 100% of treated mice
  Survival after treatment: >60 days
P. falciparum Dd2
  EC50: 5.5 nM
